The source made the active and inactive calls. The rule behind the calls is not given here. Peptide text beside a SMILES is read from it.
What was measured:
[1] = target: T1, Mitogen-activated protein kinase 14 (Homo sapiens, UniProt Q16539); test: Binding affinity to P38alpha MAPK (unknown origin) using Smad3 as substrate incubated for 1 hr in presence of increasing concentration of ATP by ELISA
[2] = target: T1, Mitogen-activated protein kinase 14; test: Binding affinity to P38alpha MAPK (unknown origin) using Smad3 as substrate incubated for 1 hr in presence of ATP by ELISA based competitive binding potency assay
[3] = target: T1, Mitogen-activated protein kinase 14; test: Binding affinity to recombinant human N-terminal GST-tagged P38alpha MAPK expressed in Escherichia coli using ERKtide as substrate by mobility shift assay
[4] = target: T1, Mitogen-activated protein kinase 14; test: Binding affinity to P38alpha MAPK (unknown origin) using MAPKAPK2 as substrate incubated for 1 hr by ELISA
[5] = target: T1, Mitogen-activated protein kinase 14; test: Binding affinity to P38alpha MAPK (unknown origin) using MBP as substrate incubated for 1 hr by ELISA

T1 sequence (Q16539 whole entry): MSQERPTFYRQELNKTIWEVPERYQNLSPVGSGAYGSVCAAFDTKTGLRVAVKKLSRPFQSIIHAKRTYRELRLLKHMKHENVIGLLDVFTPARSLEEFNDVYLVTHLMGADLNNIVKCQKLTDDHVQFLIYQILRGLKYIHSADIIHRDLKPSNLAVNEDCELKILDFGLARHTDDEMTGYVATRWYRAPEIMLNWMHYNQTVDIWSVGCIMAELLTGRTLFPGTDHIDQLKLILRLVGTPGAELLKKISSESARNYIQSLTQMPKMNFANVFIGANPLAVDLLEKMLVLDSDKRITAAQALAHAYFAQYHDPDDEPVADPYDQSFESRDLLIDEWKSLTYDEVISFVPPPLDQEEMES

Row | SMILES | Activity [1] | IC50 [2] [µM] | IC50 [3] [µM] | IC50 [4] [µM] | IC50 [5] [µM]
1 | Oc1ccc(-c2nc(-c3ccc(F)cc3)c(-c3ccncc3)[nH]2)cc1 | inactive | – | – | – | –
2 | CC[C@H](C)[C@H](N)C(=O)N[C@@H](CCCCN)C(=O)N[C@H](C(=O)N[C@@H](CCCCN)C(=O)N[C@@H](CCCCN)C(=O)N[C@H](C(=O)N[C@@H](CCC(=O)O)C(=O)N[C@@H](CC(=O)O)C(=O)N[C@@H](C)C(=O)N[C@@H](CO)C(=O)N[C@@H](CC(N)=O)C(=O)N1CCC[C@H]1C(=O)N[C@@H](CC(C)C)C(=O)N[C@@H](CC(C)C)C(=O)N[C@@H](CC(C)C)C(=O)N[C@@H](CCCCN)C(=O)N[C@@H](CCCNC(=N)N)C(=O)N[C@@H](CCCNC(=N)N)C(=O)NCC(=O)O)[C@@H](C)CC)[C@@H](C)CC (H-IKIKKIEDASNPLLLKRRG-OH) | – | 0.3 | – | – | –
3 | CC(C)C[C@H](NC(=O)[C@H](C)NC(=O)[C@H](CCCNC(=N)N)NC(=O)[C@H](C)NC(=O)[C@H](CCCCN)NC(=O)[C@H](CCCNC(=N)N)NC(=O)[C@H](CCCNC(=N)N)NC(=O)[C@H](CCCNC(=N)N)NC(=O)[C@H](CCCCN)NC(=O)[C@H](CC(C)C)NC(=O)[C@H](CC(C)C)NC(=O)[C@H](CC(C)C)NC(=O)[C@@H]1CCCN1C(=O)[C@H](CC(N)=O)NC(=O)[C@@H](N)CO)C(=O)O (H-SNPLLLKRRRKARAL-OH) | – | 0.29 | – | – | –
4 | CC[C@H](C)[C@H](NC(=O)[C@H](CCC(=O)O)NC(=O)[C@@H](NC(=O)[C@H](Cc1cnc[nH]1)NC(=O)[C@H](CCCNC(=N)N)NC(=O)[C@@H]1CCCN1C(=O)[C@@H](NC(=O)[C@H](CC(C)C)NC(=O)[C@@H](NC(=O)[C@@H]1CCCN1C(=O)[C@@H]1CCCN1C(=O)[C@@H](N)CC(C)C)C(C)C)C(C)C)[C@@H](C)O)C(=O)N1CCC[C@H]1C(=O)N[C@@H](C)C(=O)N[C@@H](CCC(=O)O)C(=O)N[C@@H](Cc1ccccc1)C(=O)N1CCC[C@H]1C(=O)N1CCC[C@H]1C(=O)N[C@@H](CC(C)C)C(=O)N[C@@H](CC(=O)O)C(=O)N[C@@H](CC(=O)O)C(=O)N[C@@H](Cc1ccc(O)cc1)C(=O)N[C@@H](CO)C(=O)N[C@@H](Cc1cnc[nH]1)C(=O)N[C@@H](CO)C(=O)N[C@H](C(=O)N1CCC[C@H]1C(=O)N[C@@H](CCC(=O)O)C(=O)N[C@@H](CC(N)=O)C(=O)O)[C@@H](C)CC (H-LPPVLVPRHTEIPAEFPPLDDYSHSIPEN-OH) | – | > 100 | > 100 | – | –
5 | CC[C@H](C)[C@H](NC(=O)[C@H](CCCCN)NC(=O)[C@H](CC(C)C)NC(=O)CNC(=O)[C@@H]1CCCN1C(=O)[C@H](CC(N)=O)NC(=O)[C@H](CCCNC(=N)N)NC(=O)[C@H](CCCCN)NC(=O)[C@H](CCCCN)NC(=O)CNC(=O)[C@H](CCCCN)NC(=O)[C@@H](N)CO)C(=O)N1CCC[C@H]1C(=O)O (H-SKGKKRNPGLKIP-OH) | – | 2.6 | > 100 | – | –
6 | CC[C@H](C)[C@H](N)C(=O)N[C@@H](CCCCN)C(=O)N[C@H](C(=O)N[C@@H](CCCCN)C(=O)N[C@@H](CCCCN)C(=O)N[C@H](C(=O)N[C@@H](CCC(=O)O)C(=O)N[C@@H](CC(=O)O)C(=O)N[C@@H](C)C(=O)N[C@@H](CO)C(=O)N[C@@H](CC(N)=O)C(=O)N1CCC[C@H]1C(=O)N[C@@H](CC(C)C)C(=O)N[C@@H](CC(C)C)C(=O)N[C@@H](CC(C)C)C(=O)N[C@H](C(=O)N[C@@H](CS)C(=O)N[C@@H](CCCNC(=N)N)C(=O)N[C@@H](CCCNC(=N)N)C(=O)N[C@@H](CCCNC(=N)N)C(=O)N[C@@H](CCCCN)C(=O)N[C@@H](C)C(=O)N[C@@H](CCCNC(=N)N)C(=O)N[C@@H](C)C(=O)N[C@@H](CC(C)C)C(=O)O)[C@@H](C)CC)[C@@H](C)CC)[C@@H](C)CC (H-IKIKKIEDASNPLLLICRRRKARAL-OH) | Active | 0.0013 | > 100 | > 1 | > 1
7 | CC[C@H](C)[C@H](NC(=O)[C@H](CCC(=O)O)NC(=O)[C@@H](NC(=O)[C@H](Cc1cnc[nH]1)NC(=O)[C@H](CCCNC(=N)N)NC(=O)[C@@H]1CCCN1C(=O)[C@@H](NC(=O)[C@H](CC(C)C)NC(=O)[C@@H](NC(=O)[C@@H]1CCCN1C(=O)[C@@H]1CCCN1C(=O)[C@@H](N)CC(C)C)C(C)C)C(C)C)[C@@H](C)O)C(=O)N1CCC[C@H]1C(=O)N[C@@H](C)C(=O)N[C@@H](CCC(=O)O)C(=O)N[C@@H](Cc1ccccc1)C(=O)N1CCC[C@H]1C(=O)N1CCC[C@H]1C(=O)N[C@@H](CC(C)C)C(=O)N[C@@H](CC(=O)O)C(=O)O (H-LPPVLVPRHTEIPAEFPPLD-OH) | – | > 100 | > 100 | – | –
8 | CC(C)C[C@H](NC(=O)[C@@H](NC(=O)[C@@H]1CCCN1C(=O)[C@@H]1CCCN1C(=O)[C@@H](N)CC(C)C)C(C)C)C(=O)N[C@H](C(=O)N1CCC[C@H]1C(=O)N[C@@H](CCCNC(=N)N)C(=O)N[C@@H](Cc1cnc[nH]1)C(=O)N[C@H](C(=O)N[C@@H](CCC(=O)O)C(=O)O)[C@@H](C)O)C(C)C (H-LPPVLVPRHTE-OH) | – | > 100 | > 100 | – | –
9 | CC[C@H](C)[C@H](NC(=O)[C@H](Cc1c[nH]c2ccccc12)NC(=O)CNC(=O)[C@H](CC(C)C)NC(=O)[C@H](CC(C)C)NC(=O)[C@H](CCCNC(=N)N)NC(=O)[C@H](CS)NC(=O)[C@@H](NC(=O)[C@@H](NC(=O)[C@@H](NC(=O)[C@@H]1CCCN1C(=O)[C@@H]1CCCN1C(=O)[C@@H](NC(=O)[C@H](Cc1ccccc1)NC(=O)[C@@H]1CCCN1C(=O)[C@H](CC(C)C)NC(=O)[C@@H](NC(=O)[C@H](CO)NC(=O)[C@@H](N)CO)[C@@H](C)CC)[C@@H](C)O)[C@@H](C)CC)C(C)C)[C@@H](C)CC)C(=O)N[C@@H](CS)C(=O)N[C@@H](CCCCN)C(=O)NCC(=O)N[C@@H](CCC(=O)O)C(=O)O (H-SSILPFTPPIVICRLLGWICKGE-OH) | – | 9 | > 100 | – | –
10 | CC[C@H](C)[C@H](N)C(=O)N[C@@H](CCCCN)C(=O)N[C@H](C(=O)N[C@@H](CCCCN)C(=O)N[C@@H](CCCCN)C(=O)N[C@H](C(=O)N[C@@H](CCC(=O)O)C(=O)N[C@@H](CC(=O)O)C(=O)N[C@@H](C)C(=O)N[C@@H](CO)C(=O)N[C@@H](CC(N)=O)C(=O)N1CCC[C@H]1C(=O)N[C@@H](CC(C)C)C(=O)O)[C@@H](C)CC)[C@@H](C)CC (H-IKIKKIEDASNPL-OH) | – | > 1 | – | – | –

Source: ChEMBL document CHEMBL4819097, “Identification of an allosteric and Smad3-selective inhibitor of p38αMAPK using a substrate-based approach” (Bioorg Med Chem Lett, 2021)
